Assay results published in ChEMBL document CHEMBL1201862, “PubChem BioAssay data set” (2004).
The source made the active and inactive calls. For most assays here, no stated cut-off is given here; in the data, actives have a measured IC50 and inactives only a lower limit.

Experiments:
[1] = target: T1, Sentrin-specific protease 6 (Homo sapiens, UniProt Q9GZR1); assay type: functional;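 further: Luminescence-based dose-response confirmatory assay of SENP6 inhibition, following up an ultra-high-throughput screen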
T1 sequence (Q9GZR1 whole entry): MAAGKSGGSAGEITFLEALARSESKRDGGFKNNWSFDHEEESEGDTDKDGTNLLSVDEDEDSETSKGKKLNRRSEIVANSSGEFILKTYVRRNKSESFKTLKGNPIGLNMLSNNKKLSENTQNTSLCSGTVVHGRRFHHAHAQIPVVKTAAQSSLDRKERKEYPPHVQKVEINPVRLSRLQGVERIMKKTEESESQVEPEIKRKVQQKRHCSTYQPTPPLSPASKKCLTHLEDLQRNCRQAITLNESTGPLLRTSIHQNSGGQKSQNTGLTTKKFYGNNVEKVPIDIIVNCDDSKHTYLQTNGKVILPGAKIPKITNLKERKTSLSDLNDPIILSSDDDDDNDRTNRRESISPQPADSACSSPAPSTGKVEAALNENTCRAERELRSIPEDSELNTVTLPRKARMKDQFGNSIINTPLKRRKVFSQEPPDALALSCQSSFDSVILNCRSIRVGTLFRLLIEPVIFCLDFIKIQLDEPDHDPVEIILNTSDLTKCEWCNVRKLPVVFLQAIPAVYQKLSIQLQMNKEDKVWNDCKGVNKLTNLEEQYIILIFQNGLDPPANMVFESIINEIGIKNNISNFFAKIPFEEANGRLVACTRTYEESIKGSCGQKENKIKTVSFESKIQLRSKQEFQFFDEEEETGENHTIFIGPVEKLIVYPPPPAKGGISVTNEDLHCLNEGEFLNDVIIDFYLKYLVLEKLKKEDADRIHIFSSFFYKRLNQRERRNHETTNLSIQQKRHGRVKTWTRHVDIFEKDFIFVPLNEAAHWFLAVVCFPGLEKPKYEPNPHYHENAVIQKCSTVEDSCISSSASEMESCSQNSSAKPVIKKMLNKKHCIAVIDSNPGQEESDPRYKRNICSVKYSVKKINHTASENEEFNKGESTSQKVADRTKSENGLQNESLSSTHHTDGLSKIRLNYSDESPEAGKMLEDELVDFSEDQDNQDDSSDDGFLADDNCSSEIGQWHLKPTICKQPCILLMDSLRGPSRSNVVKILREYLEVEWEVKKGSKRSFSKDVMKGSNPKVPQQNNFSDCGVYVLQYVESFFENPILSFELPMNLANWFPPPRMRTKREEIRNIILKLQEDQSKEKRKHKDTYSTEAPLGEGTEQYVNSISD

Caspase-3 = target: T2, Caspase-3 (Homo sapiens, UniProt P42574); assay type: functional;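 further: Dose-response selectivity test against caspase-3 for candidate inhibitors of sentrin-specific proteases (SENPs)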
T2 sequence (P42574 whole entry): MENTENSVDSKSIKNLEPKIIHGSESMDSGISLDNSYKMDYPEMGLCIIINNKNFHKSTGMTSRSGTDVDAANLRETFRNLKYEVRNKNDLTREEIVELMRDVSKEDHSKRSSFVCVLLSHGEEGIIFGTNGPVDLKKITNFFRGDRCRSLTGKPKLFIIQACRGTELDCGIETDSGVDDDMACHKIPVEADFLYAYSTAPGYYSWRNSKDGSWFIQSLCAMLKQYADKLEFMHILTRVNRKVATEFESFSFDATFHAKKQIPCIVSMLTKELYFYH

[2] = target: T3, Sentrin-specific protease 8 (Homo sapiens, UniProt Q96LD8); assay type: functional;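 further: luminescence read-out of SENP8 inhibition, dose-response confirmation following an ultra-high-throughput screen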
T3 sequence (Q96LD8 whole entry): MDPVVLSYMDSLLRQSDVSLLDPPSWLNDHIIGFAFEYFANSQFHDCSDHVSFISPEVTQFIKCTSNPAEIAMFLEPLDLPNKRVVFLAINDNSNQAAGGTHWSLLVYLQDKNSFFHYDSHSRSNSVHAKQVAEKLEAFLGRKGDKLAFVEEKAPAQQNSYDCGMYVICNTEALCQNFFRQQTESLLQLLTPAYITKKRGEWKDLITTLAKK

[3] = target: T4, Sentrin-specific protease 7 (Homo sapiens, UniProt Q9BQF6); assay type: functional;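 further: Luminescence-based dose-response confirmation of ultra-high-throughput screening hits, measuring inhibition of SENP7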
T4 sequence (Q9BQF6 whole entry): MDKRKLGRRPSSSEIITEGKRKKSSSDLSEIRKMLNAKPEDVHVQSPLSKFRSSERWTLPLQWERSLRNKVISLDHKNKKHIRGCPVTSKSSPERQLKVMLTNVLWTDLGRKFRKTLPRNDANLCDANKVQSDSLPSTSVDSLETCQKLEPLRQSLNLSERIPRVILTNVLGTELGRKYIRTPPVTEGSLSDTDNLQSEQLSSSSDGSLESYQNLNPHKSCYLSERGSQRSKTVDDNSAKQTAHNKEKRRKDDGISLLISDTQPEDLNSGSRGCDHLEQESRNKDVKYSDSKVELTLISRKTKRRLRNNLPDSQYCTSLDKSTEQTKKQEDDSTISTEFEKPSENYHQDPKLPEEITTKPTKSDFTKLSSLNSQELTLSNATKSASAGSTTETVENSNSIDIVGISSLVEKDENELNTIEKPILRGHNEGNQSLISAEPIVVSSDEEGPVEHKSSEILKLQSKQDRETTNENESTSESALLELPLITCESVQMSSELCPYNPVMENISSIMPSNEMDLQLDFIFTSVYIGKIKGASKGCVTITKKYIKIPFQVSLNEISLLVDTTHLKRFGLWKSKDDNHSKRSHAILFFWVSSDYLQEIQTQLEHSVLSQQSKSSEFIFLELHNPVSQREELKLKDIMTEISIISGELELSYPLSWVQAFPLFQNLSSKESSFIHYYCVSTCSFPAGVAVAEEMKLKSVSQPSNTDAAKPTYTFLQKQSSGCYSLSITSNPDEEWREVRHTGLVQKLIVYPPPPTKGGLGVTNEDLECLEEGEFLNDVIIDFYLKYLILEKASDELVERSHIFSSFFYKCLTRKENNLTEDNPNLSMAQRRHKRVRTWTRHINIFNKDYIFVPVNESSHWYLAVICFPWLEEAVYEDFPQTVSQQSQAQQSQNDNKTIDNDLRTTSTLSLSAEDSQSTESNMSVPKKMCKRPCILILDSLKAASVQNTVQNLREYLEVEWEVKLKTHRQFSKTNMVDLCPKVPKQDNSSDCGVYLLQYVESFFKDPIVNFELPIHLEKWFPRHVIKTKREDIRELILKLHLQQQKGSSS

[4] = target: Serine/threonine-protein phosphatase PP1-alpha catalytic subunit (Homo sapiens, UniProt P62136); test: PP1 phosphatase inhibitors, dose response, biochemical, fluorescence (AID 2394)
Chain of Serine/threonine-protein phosphatase PP1-alpha catalytic subunit (P62136 whole entry): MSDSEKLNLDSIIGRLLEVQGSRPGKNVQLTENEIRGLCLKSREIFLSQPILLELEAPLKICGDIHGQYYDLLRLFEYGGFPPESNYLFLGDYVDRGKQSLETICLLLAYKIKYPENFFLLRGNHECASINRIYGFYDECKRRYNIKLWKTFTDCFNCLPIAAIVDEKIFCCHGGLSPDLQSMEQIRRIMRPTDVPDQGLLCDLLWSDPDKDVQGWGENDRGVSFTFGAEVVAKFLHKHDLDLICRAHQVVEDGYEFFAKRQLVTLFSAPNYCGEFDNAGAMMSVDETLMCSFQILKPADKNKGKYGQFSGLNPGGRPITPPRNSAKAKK

| Structure (SMILES) | IC50 [1] | IC50 (Caspase-3) | IC50 [2] | IC50 [3] | IC50 [4] |
| --- | --- | --- | --- | --- | --- |
| CCOC(=O)C1=C(COC(=O)c2ccc([N+](=O)[O-])s2)NC(=O)NC1C (centres undefined) | 4.48 µM (active) | 8.13 µM (active) | 3.57 µM (active) | 6.1 µM (active) | – |
| Oc1cccc(/C=N/Nc2cc(N3CCCC3)nc(N3CCCC3)n2)c1 | 6.69 µM (active) | > 100 µM (inactive) | 17.2 µM (active) | 9.99 µM (active) | 21.6 µM (not active) |
